Earlier results, collected in PMC8730323 (The Journal of organic chemistry, 2021).

Legend:
HL-60 cell line = conditions: read-out: IC50 against HL-60 cell line; leukemia cells
NCL-H460 cell line = conditions: read-out: IC50 against human lung cancer NCL-H460 cell line

Cc1c(O)cc(C[C@]23C[C@H](C[C@H](C)O2)c2c4c(c(O)c(C)c2O3)CO[C@@]2(C4)C[C@@H](O)C[C@H](C)O2)c(C=O)c1O [(+)-1, (+)-peniciketal A]
IC50 (HL-60 cell line): 3.2 µM
Toxicity to normal cells compared with cancer cells (in words) (normal cells): less toxic

(−)-diocollettines A [(−)-5]
IC50 (NCL-H460 cell line): 20.2 µM
